This experiment relates to Acinetobacter baumannii ATCC17961. In words: Antimicrobial susceptibility testing: 90% growth inhibitory concentration (IC90) determination in Iso-Sensitest broth, OD600 growth. Type of experiment: cell-based. The note with it: Acinetobacter baumannii, ATCC17961, 16 h. An outline of the steps: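 OD600 read every 20 min for 16 h at 35±2° C; inhibition taken in log phase to derive IC90. Twofold, 10-point dilutions (e.g. 50–0.097 μM final), inoculum ~5×10^(5) CFU/ml.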

The mark [1] stands for this setting: strain ATCC 17961, OD600 growth over 16 h, read-out: A. baumannii ATCC 17961 IC90.
[2] abbreviates: read-out: A. baumannii ATCC 17961 IC90 (uM), strain ATCC 17961, OD600 growth over 16 h.

The structures appear in SMILES notation. Counter-ions that a name gives are not always drawn. Like-named read-outs stand apart in the source and are kept apart here.

As to `CCc1cc(Nc2nccn3c(-c4cn(COC)nc4C(F)F)cnc23)ccc1C(=O)N1CCNCC1` [Example 801, (4-((3-(3-(difluoromethyl)-1-(methoxymethyl)-1H-pyrazol-4-yl)imidazo[1,2-a]pyrazin-8-yl)amino)-2-ethylphenyl) (piperazin-1-yl)methanone], the IC90 – broadly, the concentration needed for an effect of 90% – under setting [1] worked out at 3 µM.
Same read-out and setting: the value for `CCc1cc(Nc2nccn3c(-c4cn(C(F)F)nc4C(F)(F)F)cnc23)ccc1C(=O)NCCNC(=O)[C@@H]1CCCN1` [Example 36, (2S)-N-[2-[[4-[[3-[1-(difluoromethyl)-3-(trifluoromethyl)pyrazol-4-yl]imidazo[1,2-a]pyrazin-8-yl]amino]-2-ethylbenzoyl)amino]ethyl] pyrrolidine-2-carboxamide] was 0.348 µM; that for `CCc1cc(Nc2nccn3c(-c4cn(CC(F)F)nc4C(F)(F)F)cnc23)ccc1C(=O)NCCCNC(=O)[C@@H]1C[C@@H](O)CN1` [Example 727, (2S,4R)-N-(3-(4-((3-(1-(2,2-difluoroethyl)-3-(trifluoromethyl)-1H-pyrazol-4-yl)imidazo[1,2-a]pyrazin-8-yl)amino)-2-ethylbenzamido)propyl)-4-hydroxypyrrolidine-2-carboxamide] was 0.465 µM.
The same measure, in the same setting: the value for `CCc1cc(Nc2nccn3c(-c4cn(CC(F)F)nc4C(F)(F)F)cnc23)ccc1C(=O)N[C@H](C)CN` [Example 107, N-[(2R)-1-aminopropan-2-yl]-4-[[3-[1-(2,2-difluoroethyl)-3-(trifluoromethyl)pyrazol-4-yl]imidazo[1,2-a]pyrazin-8-yl]amino]-2-ethylbenzamide] was 0.239 µM.
In the case of `CCc1cc(Nc2nccn3c(-c4c[nH]nc4C(F)(F)F)cnc23)ccc1C(=O)NCCNC(=O)[C@@H]1C[C@@](O)(CC)CN1` [Example 435, (2S,4S)-4-ethyl-N-[2-[[2-ethyl-4-[[3-[3-(trifluoromethyl)-1H-pyrazol-4-yl]imidazo[1,2-a]pyrazin-8-yl]amino]benzoyl]amino]ethyl]-4-hydroxypyrrolidine-2-carboxamide formate], the IC90 under setting [2] was determined as 2.69 µM.
With `CCc1cc(Nc2nccn3c(-c4c[nH]nc4C(F)(F)F)cnc23)ccc1C(=O)NCCNC(=O)CN` [Example 691, N-(2-(2-aminoacetamido)ethyl)-2-ethyl-4-((3-(3-(trifluoromethyl)-1H-pyrazol-4-yl)imidazo [1,2-a]pyrazin-8-yl)amino)benzamide formate], the IC90 under setting [2] was 0.352 µM.
Consider `CCc1cc(Nc2nccn3c(-c4cn(Cc5ccn(CC#N)n5)nc4C(F)(F)F)cnc23)ccc1C(=O)NC` [Example 589, 4-((3-(1-((1-(cyanomethyl)-1H-pyrazol-3-yl)methyl)-3-(trifluoromethyl)-1H-pyrazol-4-yl)imidazo[1,2-a]pyrazin-8-yl)amino)-2-ethyl-N-methylbenzamide], for which the IC90 under setting [1] is 0.84 µM.
On to `NC1CCC(NC(=O)c2ccc(Nc3nccn4c(-c5c[nH]nc5C(F)(F)F)cnc34)cc2Cl)CC1` (stereo not drawn) [Example 385, N-(4-aminocyclohexyl)-2-chloro-4-[[3-[3-(trifluoromethyl)-1H-pyrazol-4-yl]imidazo[1,2-a]pyrazin-8-yl]amino]benzamide], for which the concentration for an effect of 90% (IC90) under setting [1] stood at 0.969 µM.
For `C#CCn1cc(-c2cnc3c(Nc4ccc(C(=O)NCCOCC(C)(C)N)c(CC)c4)nccn23)c(C(F)(F)F)n1` [Example 44, N-[2-(2-amino-2-methylpropoxy)ethyl]-2-ethyl-4-[[3-[1-prop-2-ynyl-3-(trifluoromethyl)pyrazol-4-yl]imidazo[1,2-a]pyrazin-8-yl]amino]benzamide], the IC90 under setting [1] was determined as 0.059 µM.
`CCc1cc(Nc2nccn3c(-c4cn(CC(F)F)nc4C(F)(F)F)cnc23)ccc1C(=O)NCC(=O)NC1C2CNCC21` (stereo not drawn) [Example 529, N-[2-(3-azabicyclo[3.1.0]hexan-6-ylamino)-2-oxo-ethyl]-4-[[3-[1-(2,2-difluoroethyl)-3-(trifluoromethyl)pyrazol-4-yl]imidazo[1,2-a]pyrazin-8-yl]amino]-2-ethyl-benzamide formate]: the IC90 under setting [2] came out at 0.248 µM.
For `CCc1cc(Nc2nccn3c(-c4cn(CC(F)F)nc4C(F)(F)F)cnc23)ccc1C(=O)N1CCC2(CNC2)C1` [Example 555, (4-((3-(1-(2,2-difluoroethyl)-3-(trifluoromethyl)-1H-pyrazol-4-yl)imidazo[1,2-a]pyrazin-8-yl)amino)-2-ethylphenyl)(2,6-diazaspiro[3.4]octan-6-yl)methanone formate], under setting [2], the IC90 came out at 0.977 µM.
Regarding `C#CCn1cc(-c2cnc3c(Nc4ccc(C(=O)NCCOCCN)c(CC)c4)nccn23)c(C(F)F)n1` [Example 123, N-[2-(2-aminoethoxy)ethyl]-4-[[3-[3-(difluoromethyl)-1-prop-2-ynylpyrazol-4-yl]imidazo[1,2-a]pyrazin-8-yl]amino]-2-ethylbenzamide], the IC90 under setting [1] was determined as 0.209 µM.
For `N#CCn1cc(-c2cnc3c(Nc4ccc(C(=O)N5CCN(CC(=O)NCCCN)CC5)c(Cl)c4)nccn23)c(C(F)(F)F)n1` [Example 603, N-(3-aminopropyl)-2-(4-(2-chloro-4-((3-(1-(cyanomethyl)-3-(trifluoromethyl)-1H-pyrazol-4-yl)imidazo[1,2-a]pyrazin-8-yl)amino)benzoyl)piperazin-1-yl)acetamide formate], the IC90 under setting [2] turned out to be 0.384 µM.
On the same count and under the same terms, the result for `C#CCn1cc(-c2cnc3c(Nc4ccc(C(=O)NCC(=O)NCCN)c(Cl)c4)nccn23)c(C(F)(F)F)n1` [Example 116, N-[2-(2-aminoethylamino)-2-oxoethyl]-2-chloro-4-[[3-[1-prop-2-ynyl-3-(trifluoromethyl)pyrazol-4-yl]imidazo[1,2-a]pyrazin-8-yl]amino]benzamide formate] reads 0.22 µM.
For `C#CCNC(=O)c1c(C)cc(Nc2nccn3c(-c4cn(CCF)nc4C(F)(F)F)cnc23)cc1F` [Example 42, 2-fluoro-4-[[3-[1-(2-fluoroethyl)-3-(trifluoromethyl)pyrazol-4-yl]imidazo[1,2-a]pyrazin-8-yl]amino]-6-methyl-N-prop-2-ynylbenzamide], the IC90 under setting [1] stood at 0.354 µM.
`CCc1cc(Nc2nccn3c(-c4cn(CC(F)F)nc4C(F)(F)F)cnc23)ccc1C(=O)NCCNC(=O)C1CCNCC1` [Example 554, N-(2-(4-((3-(1-(2,2-difluoroethyl)-3-(trifluoromethyl)-1H-pyrazol-4-yl)imidazo[1,2-a]pyrazin-8-yl)amino)-2-ethylbenzamido)ethyl) piperidine-4-carboxamide formate]: under setting [2], the IC90 turned out to be 0.198 µM.
Take `CCc1cc(Nc2nccn3c(-c4cn(CC(F)F)nc4C(F)(F)F)cnc23)ccc1C(=O)NCCNC(=O)[C@H]1CC[C@@H](N)C1` [Example 495, N-(2-((1S,3R)-3-aminocyclopentane-1-carboxamido)ethyl)-4-((3-(1-(2,2-difluoroethyl)-3-(trifluoromethyl)-1H-pyrazol-4-yl)imidazo[1,2-a]pyrazin-8-yl)amino)-2-ethylbenzamide formate]: under setting [1], the 90% effect concentration (IC90) was 0.173 µM.
Regarding `CCc1cc(Nc2nccn3c(-c4c[nH]nc4C(F)(F)F)cnc23)ccc1C(=O)N1CCC(CN)CC1` [Example 372, [4-(aminomethyl)piperidin-1-yl]-[2-ethyl-4-[[3-[3-(trifluoromethyl)-1H-pyrazol-4-yl]imidazo[1,2-a]pyrazin-8-yl]amino]phenyl]methanone hydrochloride], under setting [1], the IC90 is 0.957 µM.

The values above are taken from patent US20230203043A1, “NOVEL IMIDAZOPYRAZINE DERIVATIVES” (Hoffmann-La Roche Inc., priority 2020, published 2023).
